How the values were obtained:
Set-up in all cases: species or system AML cell lines (8); Primary HTS, single concentration about 10 uM, Cell Titer Glo viability; log10 luminescence, per cent inhibition relative to cycloheximide control
Settings in all cases: 72 h, relative to cycloheximide control, log10 luminescence; inhibitor
CHRF288-11 = test system: CHRF288-11
CMK = test system: CMK
CMS = test system: CMS
M07e = test system: M07e
ML-2 = test system: ML-2
MOLM-13 = test system: MOLM-13
MV4-11 = test system: MV4-11
U937 = test system: U937

SMILES	CHRF288-11 %inh (CHRF288-11) [%]	CMK %inh (CMK) [%]	CMS %inh (CMS) [%]	M07e %inh (M07e) [%]	ML-2 %inh (ML-2) [%]	MOLM-13 %inh (MOLM-13) [%]	MV4-11 %inh (MV4-11) [%]	U937 %inh (U937) [%]
CS(=O)(=O)Nc1ccc(-c2cc(-c3ccccc3)cc(C(N)=O)c2N)cc1 [SJ000573108-1, R12070/86/1]	2.153	-4.619	-2.317	0.06792	-0.5203	-0.8297	0.1875	-2.496
N#Cc1ccc(Oc2nccc(-c3c(-c4ccc(F)cc4)ncn3C3CCNCC3)n2)cc1 [SJ000573110-1, JB27026-057C1]	0.2466	-0.241	-2.544	7.948	1.756	1.125	-1.125	-2.466
COc1c(C(N)=O)cc(-c2ccc(Cl)cc2)cc1-c1ccc(S(N)(=O)=O)cc1 [SJ000573112-1, R12706/72/1]	-3.227	7.525	5.358	-1.128	3.182	6.365	-1.028	1.708
CS(=O)(=O)CCNCc1cc(-c2cc3c(Nc4ccc(OCc5cccc(F)c5)c(Cl)c4)ncnc3s2)cs1 [SJ000573113-1, U20258/167/2]	-4.074	4.188	1.969	1.088	-1.098	4.183	1.359	1.681
COc1cccc(/C=N/Nc2ncnc3c2cnn3-c2cccc(OC)c2)c1 [SJ000573114-1, U19125/70/2]	-4.16	1.014	0.5792	-0.7733	-2.362	0.5296	-0.9072	-1.619
COc1cc(Nc2ncc(-c3ccccc3)o2)cc(OC)c1 [SJ000573115-1, U21834/32/1]	-9.037	3.561	-1.309	1.992	2.252	74.91	75.56	0.9564
O=S(=O)(CCOCc1ccc(-c2ccc3ncnc(Nc4ccc(OCc5cccc(F)c5)c(Cl)c4)c3c2)o1)c1ccccc1 [SJ000573116-1, U15872/4/1]	-0.6594	-5.52	1.936	-2.095	-0.1863	-1.247	2.149	-1.869
COc1ccccc1Nc1ncc(-c2ccccc2)o1 [SJ000573117-1, U14961/90/1]	5.085	-0.2443	-1.143	4.937	0.6262	90.67	83.21	-2.759
NC(=O)c1ccc(Oc2nccc(-c3c(-c4ccc(F)cc4)ncn3C3CCNCC3)n2)cc1 [SJ000573120-1, JB27193-061B1]	0.2701	7.904	-1.264	-0.791	1.469	6.408	1.936	4.71
Fc1cccc(COc2ccc(Nc3ncnc4sc(-c5cccs5)cc34)cc2Cl)c1 [SJ000573122-1, U22476/39/1]	-6.815	1.871	-1.772	-0.3704	0.7454	3.265	-2.021	3.407
Fc1ccc(-c2ncn(C3CCNCC3)c2-c2ccnc(Oc3ccc4c(c3)OCO4)n2)cc1 [SJ000573123-1, JB27026-196B1]	7.293	13.54	0.7899	3.354	3.564	2.344	0.1546	5.059
CS(=O)(=O)CCNCc1ccc(-c2ccc3ncnc(Nc4ccc(OCc5ccccc5)c(C(F)(F)F)c4)c3c2)o1 [SJ000573124-1, U14859/90/2]	-4.921	-0.3954	-0.5761	-5.391	3.074	3.836	-0.8429	1.669
Fc1ccc(-c2ncn(C3CCNCC3)c2-c2ccnc(Oc3ccc(Oc4ccccc4)cc3)n2)cc1 [SJ000573126-1, JB27026-104B1]	38.59	18.72	2.898	10.64	34.19	28.44	29.08	16.46
COc1ccc(-c2ccncc2)cc1C(N)=O [SJ000573127-1, R12444/16/1]	-1.562	5.063	5.051	1.948	2.021	4.454	-1.177	2.206
CNC(=O)c1cc(-c2ccc(F)cc2)cc(-c2ccc(S(=O)(=O)N3CCCC3)cc2)c1N [SJ000573128-1, R11976/170/3]	14.81	31.99	9.624	5.294	6.119	10.13	2.522	15.8
COc1ccc2cc(-c3c(-c4ccncc4)nc(-c4ccc([S+](C)[O-])cc4)n3C)ccc2c1 (stereo not shown) [SJ000573130-1, NJ44241-161A1]	0.3346	-2.307	-2.967	-4.153	-0.4869	-0.6311	-3.083	-2.991
Fc1ccc(-c2nc3n(c2-c2ccncc2)CCS3)cc1 [SJ000573131-1, RJA-12113-255 | U519/32/1 | SKF 86002]	-0.4036	1.491	-0.311	0.008042	0.01337	-3.313	-2.292	-2.013
c1cnn2ncc(-c3ccnc(NCCCN4CCOCC4)n3)c2c1 [SJ000573132-1, U14929/199/1]	17.57	3.496	12.25	4.031	4.815	36.05	15.28	21.78
CCS(=O)(=O)c1ccc(OC)c(Nc2ncc(-c3cccc(-c4ccccc4F)c3)o2)c1 [SJ000573133-1, U16399/42/1]	3.996	-2.911	-1.131	-0.6473	1.693	73.99	49.91	-2.484
Cc1ccc(Nc2ccnc(Nc3cccc(C(N)=O)c3)n2)cc1O [SJ000573134-1, R4218/174/1]	5.659	14.84	-1.873	3.53	3.588	95.23	65.12	-1.642
CNC(=O)c1cccc(C#Cc2cncnc2Nc2ccc(OCc3cccc(F)c3)c(Cl)c2)c1 [SJ000573135-1, U17545/42/1]	-0.4909	2.154	2.176	2.556	1.577	2.058	0.5885	0.8403
Cc1nc(-c2ccccc2)n2nc(NCCCN3CCOCC3)ncc12 [SJ000573136-1, U19891/100/1]	6.275	23.01	0.3241	-0.8598	5.663	7.46	3.076	1.344
N#Cc1cccc(Nc2ncc(-c3ccccc3)o2)c1 [SJ000573137-1, U15924/27/1]	-9.448	10.57	-1.613	-5.302	1.759	64.56	38.03	0.4025
